Results from patent US9315496B2, “Benzopyrone derivative and use thereof” (HUAZHONG UNIVERSITY OF SCIENCE & TECHNOLOGY, priority 2011, dated 2016).
Where a name gives a salt, the structure may show the parent alone. Read-outs that look alike come from different tables or passages of the source.

Key:
dopamine D2 receptor = dopamine D2 receptor (Rattus norvegicus, UniProt P61169); assay: D2 receptor binding assay (3H-Spiperone, rat brain striatum membrane); conditions: read-out: D2 inhibition %
Experimental: Rats were sacrificed by cervical dislocation on ice. Brain striatum was rapidly taken, and 2 brain striatums were combined into a centrifuge tube, to which 3 ml of buffer (0.05 M Tris-HCl buffer, containing NaCl 120 mM, KCl 5 mM, MgCl2 1 mM, CaCl2 1 mM) was added, homogenization was conducted for 3-4 s at level 4 for four times, and then 5 ml of buffer was then added. The weight of the homogenized tubes were adjusted using a balance, and centrifugation was conducted at 12000 r, 4° C. for 20 min. The supernatant was discarded, and 3 ml of buffer was added (0.05 M Tris-HCl buffer, containing NaCl 120 mM, KCl 5 mM, MgCl2 1 mM, CaCl2 1 mM). Vortex mixer was used for blending, and then 5 ml of buffer was added (0.05 M Tris-HCl buffer, containing NaCl 120 mM, KCl 5 mM, MgCl2 1 mM, CaCl2 1 mM). Centrifugation was conducted (repeated 3 times). After the centrifugations, the supernatant was discarded, and the pellets were stored at −80° C. for future use.
Beckman LS-6500 Multi-function Liquid Scintillation Counter was used.
(1) The prepared membrane was first applied with appropriate amount of homogenized liquid, and homogenizer was used for evenly dispersing. 15 tubes were mixed into a 100 ml container, and appropriate amount of homogenized liquid was added to give 50 ml of membrane suspension, which was reserved for future use.
(2) 100 μL of membrane preparation and 100 μL of buffer were added into each reaction tube.
(3) 100 μL of homogenized liquid was added into the total binding tube (TB), 100 μL of Butaclamol (final concentration 10^−5 M) was added into the non-specific binding tube (NB), and 100 μL of the test compound (final concentration 10^−5 M) was added into the specific binding tube (SB) for each compound.
(5) Each of the reaction tubes was incubated at 37° C. for 20 min. After the reaction was completed, the bound ligands were rapidly filtered under reduced pressure, and the ice-chilled assay buffer was used for adequate washing. The filter was taken out and put into a 3 ml scintillation vial, and 2 ml of toluene scintillation solution was added and blended.
(6) The scintillation vials were put into Liquid Scintillation Counter for counting. Inhibitory rate(1%)=(Total binding tube cpm−compound cpm)/(Total binding tube cpm−non-specific binding tube cpm)×100%
Each assay for the compounds was conducted in duplicate.

5-HT2A receptor = 5-HT2A receptor (Rattus norvegicus, UniProt P14842); assay: 5HT2A receptor binding assay ([3H]-Ketanserin, rat brain striatum membrane); conditions: read-out: 5HT2A inhibition %
Chain of 5-HT2A receptor (P14842 whole entry): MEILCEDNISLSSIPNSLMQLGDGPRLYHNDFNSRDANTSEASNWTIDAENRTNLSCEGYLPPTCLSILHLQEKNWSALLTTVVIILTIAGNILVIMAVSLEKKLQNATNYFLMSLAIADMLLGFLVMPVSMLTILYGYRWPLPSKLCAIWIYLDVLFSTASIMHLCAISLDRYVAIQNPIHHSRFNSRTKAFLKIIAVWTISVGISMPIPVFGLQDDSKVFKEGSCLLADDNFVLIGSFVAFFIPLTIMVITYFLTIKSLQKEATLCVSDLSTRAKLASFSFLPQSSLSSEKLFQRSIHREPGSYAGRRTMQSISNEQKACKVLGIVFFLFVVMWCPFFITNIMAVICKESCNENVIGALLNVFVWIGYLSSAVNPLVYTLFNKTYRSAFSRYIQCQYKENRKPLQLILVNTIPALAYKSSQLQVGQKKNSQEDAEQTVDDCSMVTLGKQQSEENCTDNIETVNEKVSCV

5-HT1A receptor = molecular target: T1, 5-HT1A receptor (Rattus norvegicus, UniProt P19327); assay: 5HT1A receptor binding assay (3H-8-OH-DPAT, rat brain striatum membrane); conditions: test compound final concentration 10^−5 M; 3H-8-OH-DPAT; rat brain striatum membrane
T1 sequence (P19327 1-422): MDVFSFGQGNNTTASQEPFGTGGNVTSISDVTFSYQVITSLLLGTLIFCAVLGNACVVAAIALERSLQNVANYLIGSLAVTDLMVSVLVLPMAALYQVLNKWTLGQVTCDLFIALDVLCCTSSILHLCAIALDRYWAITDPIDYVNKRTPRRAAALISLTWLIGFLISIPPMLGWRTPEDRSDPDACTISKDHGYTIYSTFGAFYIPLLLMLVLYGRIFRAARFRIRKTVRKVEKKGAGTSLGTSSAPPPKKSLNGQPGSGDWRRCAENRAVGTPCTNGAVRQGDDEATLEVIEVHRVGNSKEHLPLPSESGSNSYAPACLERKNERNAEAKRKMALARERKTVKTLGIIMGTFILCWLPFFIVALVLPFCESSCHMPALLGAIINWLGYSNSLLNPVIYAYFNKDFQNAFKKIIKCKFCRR
Experimental: Incubation at 37° C. was conducted for 10 min, the weight of the tubes were adjusted using a balance after incubation. […] Centrifugation was conducted and repeated 3 times.

[1] = test compound final concentration 10^−5 M, [3H]-Ketanserin, rat brain striatum membrane

Chain of dopamine D2 receptor (P61169 whole entry): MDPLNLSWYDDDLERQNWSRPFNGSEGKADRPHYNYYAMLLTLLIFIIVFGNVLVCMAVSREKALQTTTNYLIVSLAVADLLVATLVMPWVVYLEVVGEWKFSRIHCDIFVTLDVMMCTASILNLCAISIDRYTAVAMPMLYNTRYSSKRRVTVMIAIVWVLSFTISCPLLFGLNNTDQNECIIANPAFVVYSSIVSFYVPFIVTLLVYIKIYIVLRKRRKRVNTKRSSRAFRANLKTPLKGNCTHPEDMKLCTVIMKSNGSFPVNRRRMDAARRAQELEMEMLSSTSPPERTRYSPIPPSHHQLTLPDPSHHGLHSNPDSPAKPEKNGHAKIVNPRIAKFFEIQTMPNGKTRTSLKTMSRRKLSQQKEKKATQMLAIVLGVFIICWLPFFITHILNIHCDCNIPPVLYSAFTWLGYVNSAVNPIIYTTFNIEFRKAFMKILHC

Row | SMILES | inhibition at 10 µM (dopamine D2 receptor) | inhibition at 10 µM (5-HT2A receptor; [1]) | melting point | inhibition at 10 µM (5-HT1A receptor) | inhibition at 10 µM (5-HT2A receptor)
1 | Cc1cc(=O)oc2c(Cl)c(OCCCN3CCC(c4noc5cc(F)ccc45)CC3)ccc12 [Compound 21, 7-(3-(4-(3-(6-fluoro-benzisoxazole)-1-piperidyl)-n-propoxy))-4-methyl-8-chloro-2H-benzopyran-2-one] | 32.9% | 90.1% | 185 to 187 °C | 101% | 
2 | O=c1ccc2ccc(OCCCN3CCN(c4nsc5ccccc45)CC3)cc2o1 [Compound 4, 7-(3-(4-(3-(1,2-benzisothiazole)-1-piperazinyl)-n-propoxy))-2H-benzopyran-2-one] | 49.2% | 59.1% | 91 to 93 °C | 101% | 
3 | O=c1cc(CO)c2ccc(OCCCCN3CCC(c4noc5cc(F)ccc45)CC3)cc2o1 [Compound 31, 7-(4-(4-(3-(6-fluoro-benzisoxazole)-1-piperidyl)-n-butoxy))-4-hydroxymethyl-2H-benzopyran-2-one] | 2.4% | 1.8% | 160 to 162 °C | 63.9% | 
4 | O=C1CC(c2ccccc2)c2ccc(OCCCCN3CCC(c4noc5cc(F)ccc45)CC3)cc2O1 (centres unmarked) [Compound 34] | 120% | 115% |  | 5.9% | 
5 | O=c1cc(-c2ccccc2)c2ccc(OCCCN3CCN(c4nsc5ccccc45)CC3)cc2o1 (as salt: hydrochloride) [Compound 12, 7-(3-(4-(3-(1,2-benzisothiazole)-1-piperazinyl)-n-propoxy))-4-phenyl-2H-benzopyran-2-one] |  |  | 96 to 98 °C |  | 
6 | Cc1cc(=O)oc2cc(OC/C=C/CN3CCC(c4noc5cc(F)ccc45)CC3)ccc12 [Compound 10, (E)-7-(4-(4-(3-(6-fluoro-benzisoxazole)-3-piperidyl)-but-2-enyloxy))-4-methyl-2H-benzopyran-2-one] | 111% | 109% | 129 to 130 °C | 102% | 
7 | O=c1cc(-c2ccccc2)c2ccc(OCC(O)CN3CCC(c4noc5cc(F)ccc45)CC3)cc2o1 (centres unmarked) [Compound 33, 7-(3-(4-(3-(6-fluoro-benzisoxazole)-1-piperidyl)-2-hydroxylpropoxy))-4-phenyl-2H-benzopyran-2-one] | 110% | 129% | 193 to 195 °C | 23.5% | 
8 | CCc1cc(=O)oc2cc(OCCCCN3CCN(c4nsc5ccccc45)CC3)ccc12 [Compound 28, 7-(4-(4-(3-(1,2-benzisothiazole)-1-piperazinyl)-n-butoxy))-4-ethyl-2H-benzopyran-2-one] | 58.8% | 56.1% | 110 to 112 °C | 11% | 
9 | Cc1c(C)c2ccc(OCCCCN3CCC(c4noc5cc(F)ccc45)CC3)cc2oc1=O [Compound 29, 7-(4-(4-(3-(6-fluoro-benzisoxazole)-1-piperidyl)-n-butoxy))-3,4-dimethyl-2H-benzopyran-2-one] | 43.2% | 24.7% | 106 to 108 °C | 97.1% | 
10 | O=c1cc(CO)c2ccc(OCCCN3CCC(c4noc5cc(F)ccc45)CC3)cc2o1 [Compound 30, 7-(3-(4-(3-(6-fluoro-benzisoxazole)-1-piperidyl)-n-propoxy))-4-hydroxymethyl-2H-benzopyran-2-one] | 20.3% | 98.5% | 144 to 146 °C | 82.8% | 
11 | Cc1cc(=O)oc2c(Cl)c(OCCCCN3CCN(c4nsc5ccccc45)CC3)ccc12 [Compound 20, 7-(4-(4-(3-(1,2-benzisothiazole)-1-piperazinyl)-n-butoxy))-4-methyl-8-chloro-2H-benzopyran-2-one] | 9.7% | 15.5% | 133 to 135 °C | 92.8% | 
12 | O=c1cc(-c2ccccc2)c2ccc(OCCCCN3CCN(c4nsc5ccccc45)CC3)cc2o1 [Compound 14, 7-(4-(4-(3-(1,2-benzisothiazole)-1-piperazinyl)-n-butoxy))-4-phenyl-2H-benzopyran-2-one] | 68.6% | 83.4% | 116 to 118 °C | 95.5% | 
13 | Cc1cc(=O)oc2cc(OCC(O)CN3CCC(c4noc5cc(F)ccc45)CC3)ccc12 (centres unmarked) [Compound 32, 7-(3-(4-(3-(6-fluoro-benzisoxazole)-1-piperidyl)-2-hydroxylpropoxy))-4-methyl-2H-benzopyran-2-one] | 62.6% | 157% | 183 to 185 °C | 103% | 
14 | O=c1cc(C(F)(F)F)c2ccc(OCCCCN3CCC(c4noc5cc(F)ccc45)CC3)cc2o1 [Compound 17, 7-(4-(4-(3-(6-fluoro-benzisoxazole)-1-piperidyl)-n-butoxy))-4-(trifluoromethyl)-2H-benzopyran-2-one] | 92.3% | 95.9% | 125 to 127 °C | 101% | 
15 | CCCc1cc(=O)oc2cc(OCCCCN3CCN(c4nsc5ccccc45)CC3)ccc12 [Compound 26, 7-(4-(4-(3-(1,2-benzisothiazole)-1-piperazinyl)-n-butoxy))-4-n-propyl-2H-benzopyran-2-one] | 61.9% | 129% |  | 99.7% | 
16 | Cc1cc(=O)oc2c(C)c(OCCCCN3CCN(c4nsc5ccccc45)CC3)ccc12 [Compound 24, 7-(4-(4-(3-(1,2-benzisothiazole)-1-piperazinyl)-n-butoxy))-4-8-dimethyl-2H-benzopyran-2-one] | 98.1% | 97.4% | 106 to 108 °C | 105% | 
17 | O=c1ccc2ccc(OCCCCN3CCN(c4nsc5ccccc45)CC3)cc2o1 (as salt: hydrochloride) [Compound 2, 7-(4-(4-(3-(1,2-benzisothiazole)-1-piperazinyl)-n-butoxy))-2H-benzopyran-2-one] |  |  | 103 to 105 °C |  | 
18 | Cc1cc(=O)oc2cc(OCCCN3CCN(c4nsc5ccccc45)CC3)ccc12 [Compound 8, 7-(3-(4-(3-(1,2-benzisothiazole)-1-piperazinyl)-n-propoxy))-4-methyl-2H-benzopyran-2-one] | 73.8% | 88.6% | 113 to 115 °C | 98.5% | 
19 | Cc1cc(=O)oc2cc(OCCCCCN3CCC(c4noc5cc(F)ccc45)CC3)ccc12 [Compound 9, 7-(5-(4-(3-(6-fluoro-benzisoxazole)-1-piperidyl)-n-pentyloxy))-4-methyl-2H-benzopyran-2-one] | 102% | 120% | 119 to 121 °C | 88.8% | 
20 | O=c1cc(C(F)(F)F)c2ccc(OCCCN3CCN(c4nsc5ccccc45)CC3)cc2o1 (as salt: hydrochloride) [Compound 16, 7-(3-(4-(3-(1,2-benzisothiazole)-1-piperazinyl)-n-propoxy))-4-(trifluoromethyl)-2H-benzopyran-2-one] |  |  | 103 to 105 °C |  | 
21 | O=c1ccc2ccc(OCCCN3CCC(c4noc5cc(F)ccc45)CC3)cc2o1 [Compound 3, 7-(3-(4-(3-(6-fluoro-benzisoxazole)-1-piperidyl)-n-propoxy))-2H-benzopyran-2-one] | 106% | 101% | 128 to 130 °C | 42.3% | 
22 | CCc1cc(=O)oc2cc(OCCCCN3CCC(c4noc5cc(F)ccc45)CC3)ccc12 [Compound 27, 7-(4-(4-(3-(6-fluoro-benzisoxazole)-1-piperidyl)-n-butoxy))-4-ethyl-2H-benzopyran-2-one] | 84% | 124% |  | 65.7% | 
23 | O=c1cc(-c2ccccc2)c2ccc(OCCCN3CCC(c4noc5cc(F)ccc45)CC3)cc2o1 [Compound 11, 7-(3-(4-(3-(6-fluoro-benzisoxazole)-1-piperidyl)-n-propoxy))-4-phenyl-2H-benzopyran-2-one] | 18.5% | 57.8% | 185 to 187 °C | 35.3% | 
24 | O=c1ccc2ccc(OCCCCN3CCN(c4nsc5ccccc45)CC3)cc2o1 [Compound 2, 7-(4-(4-(3-(1,2-benzisothiazole)-1-piperazinyl)-n-butoxy))-2H-benzopyran-2-one] | 80.6% | 103% |  | 99.4% | 
25 | O=c1cc(-c2ccccc2)c2ccc(OCCCCN3CCC(c4noc5cc(F)ccc45)CC3)cc2o1 [Compound 13, 7-(4-(4-(3-(6-fluoro-benzisoxazole)-1-piperidyl)-n-butoxy))-4-phenyl-2H-benzopyran-2-one] | 65.2% |  |  | 111% | 67.2%
26 | O=c1cc(C(F)(F)F)c2ccc(OCCCN3CCN(c4nsc5ccccc45)CC3)cc2o1 [Compound 16, 7-(3-(4-(3-(1,2-benzisothiazole)-1-piperazinyl)-n-propoxy))-4-(trifluoromethyl)-2H-benzopyran-2-one] | 115% | 96.3% |  | 104% | 
